Measurements published in patent US10975042B2, “Method for purifying an amino acid-n-carboxy anhydride” (SHIN-ETSU CHEMICAL CO., LTD., priority 2018, dated 2021).

Assay: Long-term storage stability of NCA, purity by DSC
Assay type: physicochemical
Conditions: DSC
Method: In Examples and Comparative Examples, the purity of each NCA was measured using differential scanning calorimeter (DSC) in accordance with 2.52 thermal analysis method of The Japanese Pharmacopoeia, 17th ed. (2.4.4. measurement of purity). The measurement was performed using Thermo plus EVO DSC8230 (manufactured by Rigalu Corporation) as a measurement apparatus with the sample amount of 1 mg at a temperature increasing rate of 1° C./minute. Incidentally, it is conceived that precise measurement cannot be guaranteed unless the purity is 98 mol % or more according to 2.52 thermal analysis method of The Japanese Pharmacopoeia, 17th ed. (2.4.4. measurement of purity).
Each purified NCA was evaluated for long-term storage stability. […] Regarding the conditions of −20±5° C., the results of purity measured by DSC at after a half year, after 1 year, and after 2 years are shown. Regarding the conditions of 0 to 5° C., the results of purity measured by DSC at after 1 month, 2 months, and a half year are shown. As a comparison, commercially available NCA shown by the general formula (A) (manufactured by Isochem), the purity of which is more than 98 mol % based on the DSC measurement, was evaluated and shown as Comparison 1. This NCA has a residual chlorine concentration of 0.030 mass % and belongs to a lot with extremely low residual chlorine concentration in commercially available NCAs.

[1] = initial value of storage test at 0 to 5° C.
[2] = initial value of storage test at −20±5° C.

SMILES | Purity after purification [1] [mol %] | Purity after purification [2] [mol %] | Purity after 1 month from purification (storage at 0 to 5° C.) [mol %] | Purity after 2 months from purification (storage at 0 to 5° C.) [mol %] | Purity after a half year from purification (storage at 0 to 5° C.) [mol %] | Purity after 1 year from purification (storage at −20±5° C.) [mol %] | Purity after 2 years from purification (storage at −20±5° C.) [mol %] | Purity after a half year from purification (storage at −20±5° C.) [mol %]
O=C(CCC1NC(=O)OC1=O)OCc1ccccc1 (stereo not drawn) [(B)] | 99.40 | 99.40 | 99.39 | 99.41 | 99.41 | 99.41 | 99.40 | 99.40
O=C1NC(CCCOCc2ccccc2)C(=O)O1 (stereo not drawn) [(E)] | 98.90 | 98.90 | 98.90 | 98.88 | 98.86 | 98.88 | 98.89 | 98.89
O=C(CC1NC(=O)OC1=O)OCc1ccccc1 (stereo not drawn) [(G)] | 99.25 | 99.25 | 99.24 | 99.25 | 99.26 | 99.26 | 99.25 | 99.25
CC(C)(C)OC(=O)CC1NC(=O)OC1=O (stereo not drawn) [(H)] | 99.18 | 99.18 | 99.19 | 99.19 | 99.18 | 99.16 | 99.16 | 99.17
CC(C)(C)[Si](OCCC1NC(=O)OC1=O)(c1ccccc1)c1ccccc1 (stereo not drawn) [(I)] | 99.35 | 99.35 | 99.35 | 99.36 | 99.36 | 99.36 | 99.36 | 99.35
O=C1CNC(=O)O1 [(J)] | 99.10 | 99.10 | 99.12 | 99.10 | 99.08 | 99.12 | 99.10 | 99.15

The next lines start with the values.

Purity after purification [1] [mol %] | Purity after purification [2] [mol %] | Purity after 1 month from purification (storage at 0 to 5° C.) [mol %] | Purity after 2 months from purification (storage at 0 to 5° C.) [mol %] | Purity after a half year from purification (storage at 0 to 5° C.) [mol %] | Purity after 1 year from purification (storage at −20±5° C.) [mol %] | Purity after 2 years from purification (storage at −20±5° C.) [mol %] | Purity after a half year from purification (storage at −20±5° C.) [mol %] | SMILES
99.20 | 99.20 | 99.22 | 99.21 | 99.19 | 99.22 | 99.21 | 99.22 | CC(=O)OCCCC1NC(=O)OC1=O (stereo not drawn) [(C)]
99.00 | 99.00 | 98.98 | 99.00 | 98.95 | 99.00 | 99.05 | 98.95 | COCOCCCC1NC(=O)OC1=O (stereo not drawn) [(D)]
99.10 | 99.10 | 99.12 | 99.10 | 99.10 | 99.12 | 99.12 | 99.12 | CC(C)(C)OCCCC1NC(=O)OC1=O (stereo not drawn) [(F)]
